Legend:
[1] = Cytotoxicity in HepG2.2.15 cells (CellTiter Glo); assay type: cell-based; details: human, highest concentration 150 μM
Protocol: Test 2: Cytotoxicity and Selectivity Index
Methods of Testing Cytotoxicity and Selectivity Index
The serial diluted compound was added to a 384 wells plate at 50 μL HepG2.2.15 cell per well (3000 cells per well), the highest final concentration in the experiment is 150 μM (200 fold dilution). The plate was cultured at 37° C. in an incubator with C02 for 4 days, and cytotoxicity of the compound was detected using CellTiter Glo agent.
The cytotoxicity of the compound was calculated using the following formulate, cytotoxicity (%)=100−(detection value/mean of DMSO control wells values×100). CC50 values were calculated by a four parametric nonlinear regression model using Graphpad Prism 5 software to manage concentration−cytotoxicity (%). […]

[2] = test system: HBV; test: Anti HBV activity in vitro, viral DNA from HepG2.2.15 cells quantified by qPCR; assay type: cell-based; details: Hepatitis B virus, qPCR of viral DNA in supernatant, read-out: EC50 against HBV replication
Protocol: Test 1: Test Method of EC50 of Anti HBV
HBV Cell Line and Culture Conditions
HepG2.2.15 (SELLS, PNAS, 1987 and SELLS, JV, 1988) chromosomes have an integrated complete HBV genome, and stably express viral RNA and viral protein. HepG2.2.15 cells can secrete mature HBV particles, HBsAg and HBeAg to medium. HepG2.2.15 cells were cultured in DMEM containing 10% fetal bovine serum, 100 U/mL penicillin, 100 U/mL streptomycin, 1% non essential amino acid, 1 mM sodium pyruvate and 300 µg/mL G418.
Viral particles DNA secreted from HepG2.2.15 cells can be quantified by qPCR, and the effect of the compound on viral replication can be detected.
Test of Anti HBV Activity In Vitro
8000 HepG 2.2.15 cells per well were seeded into a 96-well plate, the plate was cultured at 37° C. and 5% CO2 for 3 days till the cells grew to full wells. Old liquid medium can be removed and replaced with new medium (200 μL) on day 0.
Formulating the compound and treating the cells in the experiment of anti virus: the compound was dissolved in DMSO to a concentration of 30 mM, and then the compound solution was diluted with DMSO to a concentration of […], and then eight dilutions at 4 fold were performed, the highest concentration is 800 μM. The serial diluted compound was added to the above plate at 1 μL per well, the highest final concentration in the experiment is 4 μM (200 fold dilution). TDF (tenofovir dipiroxil fumarate, Selleck, Cat S1400) has a highest concentration of 4 μM as a positive control. 1 μL of DMSO was added in to the positive control well at a final concentration of 0.5%, TDF was added in to the positive control well at a final concentration of 1 μM.
Detection of Viral Genomic DNA by qPCR
Primer: HBV-For-202, […]; HBV-Rev-315, […]. Copies of virus can be calculated using a standard curve plotted by using plasmid containing HBV genome and using SYBR Premix Ex Taq II Takara DRR081S kit and 1 μL cell culture supernatant as a template. EC50 values of the compound on viral replication were calculated by a four parametric nonlinear regression model using Graphpad Prism 5 software to manage concentration—viral copy number.

| SMILES | CC50 at 4 days [1] [nM] | EC50 [2] [nM] |
| --- | --- | --- |
| COC(=O)C1=C(CN2CCN3C(=O)N(c4ccc(CCC(=O)O)cc4)C[C@H]3[C@@H]2CO)NC(c2nccs2)=N[C@H]1c1ccc(F)cc1Cl [Example 59A] | > 150000 |  |
| COC(=O)C1=C(CN2CCN3C(=O)N(c4ccc(/C=C(\C)C(=O)O)cc4)C[C@@H]3C2)NC(c2nccs2)=N[C@H]1c1ccc(F)cc1Cl [Example 53, (E)-3-(4-((S)-7-(((R)-6-(2-chloro-4-fluorophenyl)-5-(methoxycarbonyl)-2-(thiazol-2-yl)-3,6-dihydropyrimidin-4-yl)methyl)-3-oxohexahydroimidazo[1,5-a]pyrazin-2(3H)-yl)phenyl)-2-methylacrylic Acid] | > 150000 | 14 |
| COC(=O)C1=C(CN2CCN3C(=O)N(c4ccc(CCC(=O)O)cc4)C[C@@H]3C2)NC(c2nccn2C)=NC1c1ccc(F)cc1Cl (stereo partly drawn) [Example 45, 3-(4-((8aS)-7-((-6-(2-chloro-4-fluorophenyl)-5-(methoxycarbonyl)-2-(1-methyl-1H-imidazol-2-yl)-3,6-dihydropyrimidin-4-yl)methyl)-3-oxohexahydroimidazo[1,5-a]pyrazin-2(3H)-yl)phenyl)propionic Acid] | > 150000 | 8 |
| COC(=O)C1=C(CN2CCN3C(=O)N(c4nc(/C=C/C(=O)O)cs4)C[C@@H]3C2)NC(c2nccs2)=N[C@H]1c1ccc(F)cc1Cl [Example 52, (E)-3-(2-((S)-7-(((R)-6-(2-chloro-4-fluorophenyl)-5-(methoxycarbonyl)-2-(thiazol-2-yl)-3,6-dihydropyrimidin-4-yl)methyl)-3-oxohexahydroimidazo[1,5-a]pyrazin-2(3H)-yl)-thiazol-4-yl)acrylic Acid] | > 150000 | 13 |
| COC[C@H]1[C@@H]2CN(c3ccc(CCC(=O)O)cc3)C(=O)N2CCN1CC1=C(C(=O)OC)[C@H](c2ccc(F)cc2Cl)N=C(c2nccs2)N1 [Example 51A] | > 150000 |  |
| COC(=O)C1=C(CN2CCN3C(=O)N(c4ccc(CCC(=O)O)cc4)C[C@@H]3[C@H]2CO)NC(c2nccs2)=N[C@H]1c1ccc(F)cc1Cl [Example 59B] | > 150000 | 15 |
| COC(=O)C1=C(CN2CCN3C(=O)N(c4ccc(OC(C)(C)C(=O)O)cc4)C[C@@H]3C2)NC(c2nccs2)=N[C@H]1c1ccc(F)cc1Cl [Example 40, 2-(4-((S)-7-(((R)-6-(2-chloro-4-fluorophenyl)-5-(methoxycarbonyl)-2-(thiazol-2-yl)-3,6-dihydropyrimidin-4-yl)methyl)-3-oxohexahydroimidazo[1,5-a]pyrazin-2(3H)-yl)phenoxy)-2-methylpropionic Acid] | > 150000 | 71 |
| COC(=O)C1=C(CN2CCN3C(=O)N(c4ccc(CCC(=O)O)cn4)C[C@@H]3C2)NC(c2nccs2)=N[C@H]1c1ccc(F)cc1Cl [Example 35, 3-(6-((S)-7-(((R)-6-(2-chloro-4-fluorophenyl)-5-(methoxycarbonyl)-2-(thiazol-2-yl)-3,6-dihydropyrimidin-4-yl)methyl)-3-oxohexahydroimidazo[1,5-a]pyrazin-2(3H)-yl)pyridin-3-yl)propionic Acid] |  | 8 |
| COC(=O)C1=C(CN2CCN3C(=O)N([C@H](Cc4ccccc4)C(=O)O)CC3C2)NC(c2nccs2)=N[C@H]1c1ccc(F)cc1Cl (stereo partly drawn) [Example 11, (2R)-2-(7-(((R)-6-(2-chloro-4-fluorophenyl)-5-(methoxycarbonyl)-2-(thiazol-2-yl)-3,6-dihydropyrimidin-4-yl)methyl)-3-oxohexahydroimidazo[1,5-a]pyrazin-2(3H)-yl)-3-phenylpropionic Acid] |  | 32 |
| COCCN1C[C@@H](N2C[C@@H]3CN(CC4=C(C(=O)OC)[C@H](c5ccc(F)cc5Cl)N=C(c5nccs5)N4)CCN3C2=O)C[C@@H]1C(=O)O [Example 7, (2R,4S)-4-((S)-7-(((R)-6-(2-chloro-4-fluorophenyl)-5-(methoxycarbonyl)-2-(thiazol-2-yl)-3,6-dihydropyrimidin-4-yl)methyl)-3-oxohexahydroimidazo[1,5-a]pyrazin-2(3H)-yl)-1-(2-methoxyethyl)pyrrolidine-2-carboxylic Acid] |  | 56 |
| COC[C@@H]1[C@H]2CN(c3ccc(C(C)(C)C(=O)O)cc3)C(=O)N2CCN1CC1=C(C(=O)OC)[C@H](c2ccc(F)cc2Cl)N=C(c2nccs2)N1 [Example 61B] |  | 5 |
| CCOC(=O)C1=C(CN2CCN3C(=O)N(c4ccc(/C=C(\C)C(=O)O)cc4)C[C@@H]3C2)NC(c2nccs2)=N[C@H]1c1ccc(F)cc1Br [Example 55, (E)-3-(4-((S)-7-(((R)-6-(2-bromo-4-fluorophenyl)-5-(ethoxycarbonyl)-2-(thiazol-2-yl)-3,6-dihydropyrimidin-4-yl)methyl)-3-oxohexahydroimidazo[1,5-a]pyrazin-2(3H)-yl)phenyl)-2-methylacrylic Acid] |  | 9 |
| COC(=O)C1=C(CN2CCN3C(=O)N(C(CC(=O)O)c4ccccc4)C[C@@H]3C2)NC(c2nccs2)=N[C@H]1c1ccc(F)cc1Cl (stereo partly drawn) [Example 12, 3-((S)-7-(((R)-6-(2-chloro-4-fluorophenyl)-5-(methoxycarbonyl)-2-(thiazol-2-yl)-3,6-dihydropyrimidin-4-yl)methyl)-3-oxohexahydroimidazo[1,5-a]pyrazin-2(3H)-yl)-3-phenylpropionic Acid] |  | 37 |
| COC(=O)CCc1ccc(N2C[C@@H]3[C@@H](CO)N(CC4=C(C(=O)OC)[C@H](c5ccc(F)cc5Cl)N=C(c5nccs5)N4)CCN3C2=O)cc1 [Example 58B] |  | 14 |
| COC[C@@H]1[C@H]2CN(c3ccc(CCC(=O)OC)cc3)C(=O)N2CCN1CC1=C(C(=O)OC)[C@H](c2ccc(F)cc2Cl)N=C(c2nccs2)N1 [Example 50B] |  | 8 |
| CCOC(=O)C1=C(CN2CCN3C(=O)N(c4ccc(CCC(=O)O)cc4)C[C@@H]3[C@H]2COC)NC(c2nccs2)=N[C@H]1c1ccc(F)cc1Br [Example 57, 3-(4-((8S,8aR)-7-(((R)-6-(2-bromo-4-fluorophenyl)-5-(ethoxycarbonyl)-2-(thiazol-2-yl)-3,6-dihydropyrimidin-4-yl)methyl)-8-(methoxymethyl)-3-oxohexahydroimidazo[1,5-a]pyrazin-2(3H)-yl)phenyl)propionic Acid] |  | 12 |
| COC(=O)C1=C(CN2CCN3C(=O)N(c4cncc(CCC(=O)O)c4)C[C@@H]3C2)NC(c2nccs2)=N[C@H]1c1ccc(F)cc1Cl [Example 36, 3-(5-((S)-7-(((R)-6-(2-chloro-4-fluorophenyl)-5-(methoxycarbonyl)-2-(thiazol-2-yl)-3,6-dihydropyrimidin-4-yl)methyl)-3-oxohexahydroimidazo[1,5-a]pyrazin-2(3H)-yl)pyridin-3-yl)propionic Acid] | > 150000 |  |
| CCOC(=O)C1=C(CN2CCN3C(=O)N(c4ccc(/C(C)=C/C(=O)O)cc4)C[C@@H]3C2)NC(c2nccs2)=N[C@H]1c1ccc(F)cc1Br [Example 56, (E)-3-(4-((S)-7-(((R)-6-(2-bromo-4-fluorophenyl)-5-(ethoxycarbonyl)-2-(thiazol-2-yl)-3,6-dihydropyrimidin-4-yl)methyl)-3-oxohexahydroimidazo[1,5-a]pyrazin-2(3H)-yl)phenyl)-2-butenoic Acid] |  | 12 |
| COC[C@@H]1[C@H]2CN(c3ccc(C(C)(C)C(=O)OC)cc3)C(=O)N2CCN1CC1=C(C(=O)OC)[C@H](c2ccc(F)cc2Cl)N=C(c2nccs2)N1 [Example 60B] |  | 4 |

— US11261190B2, “Dihydropyrimidine compounds and uses thereof in medicine” (SUNSHINE LAKE PHARMA CO., LTD., priority 2017, dated 2022)
